Test results as given in patent US9382306B2, “Octapeptide compounds derived from somatostatin and the therapeutic use thereof” (IPSEN PHARMA S.A.S., priority 2008, dated 2016).
Bridge positions count the residues as written; N and C are the ends. Square brackets hold non-standard residues; d marks the D form. Peptide text beside a SMILES is read from it. ξ: configuration not given here. d2Nal = N[C@H](Cc1ccc2ccccc2c1)C(=O)O; Thr(3ξ) = CC(O)[C@H](N)C(=O)O

Legend:
[1] = Dynamic release test in PBS; type: physicochemical; details: PBS pH 7.4, 37° C., % of free compound
Protocol: Release studies can be carried out on the octapeptide compounds according to the invention in the form of gel, solid, or in suspension. Two types of tests can be envisaged: static release tests and/or dynamic tests, both are briefly described hereafter.
The experimental parameters are common to both types of tests. The release medium is a liquid medium which is physico-chemically well-controlled, preferably a PBS (phosphate buffer saline) buffer adjusted to pH 7.4 and maintained at 37° C. The release curve is defined as the concentration of the studied compound in the dissolution medium (expressed in % of free compound) as a function of time (minutes, hours, days). To initiate the tests, a know quantity of sample is placed in the dissolution medium at time 0 (t=0 min/h/d), the sample being optionally conditioned in a device which is suited to its initial physical state (gel, solid, suspension). Measurements of the concentration of the compound in the release medium are carried out by one or more analytical methods which are well known in the state of the art such as UV-visible spectrophotometry or the HPLC (High Performance Liquid Chromatography). The parameters of the analytical methods are adjusted as a function of the physico-chemical characteristics of the compounds. The tests can be carried out with various starting concentrations such as 75 mM and 226 mM in the examples presented hereafter.
For the dynamic release studies, controlled stirring or a release medium flow is applied to the samples. In this mode, the samplings and/or concentration determinations are generally automated and the studies can be carried out in systems / instruments which are standardized and well known in the state of the art (cf. European Pharmacopeia systems). For example, certain studies in dynamic mode can be carried out on samples corresponding to the order of 10 mg of pure compound placed in 100 mL of PBS introduced beforehand into standardized beakers and maintained at 37° C. The stirring and samplings / measurements are controlled by a dissolution testing instrument of device type 1 or 2 described by the European Pharmacopeia.

[2] = target: T1, somatostatin receptors sub-type 5 (Homo sapiens, UniProt P35346); test: Affinity for somatostatin receptors: inhibition of [125I-Tyr11]SRIF-14 binding to membranes of transfected CHO-K1 cells; details: competitive inhibition of [125I-Tyr11]SRIF-14 binding, 37° C.
T1 construct: expressed in transfected cells; membrane preparations
T1 sequence (P35346 whole entry): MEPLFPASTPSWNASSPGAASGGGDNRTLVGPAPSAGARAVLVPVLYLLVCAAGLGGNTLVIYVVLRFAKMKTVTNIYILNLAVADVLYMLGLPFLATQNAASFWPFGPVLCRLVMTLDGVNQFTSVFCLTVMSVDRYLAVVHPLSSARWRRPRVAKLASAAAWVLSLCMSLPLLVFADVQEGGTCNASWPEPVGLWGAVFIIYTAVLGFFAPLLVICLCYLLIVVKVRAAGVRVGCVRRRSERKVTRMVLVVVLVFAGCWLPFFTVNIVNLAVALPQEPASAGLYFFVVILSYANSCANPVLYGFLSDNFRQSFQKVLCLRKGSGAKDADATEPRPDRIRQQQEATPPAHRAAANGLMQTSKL

[3] = Rheology of solutions/gels of the octapeptides (oscillatory, cone/plane rheometer); type: physicochemical; details: 25° C.
Protocol: The viscous and viscoelastic properties of the solutions/gels of the compounds according to the invention can be studied by rheology according to the operating methods described hereafter.
The measurements are in general carried out using a rheometer of “Control Stress Haake 600” type (Haake, Germany) equipped with a cone/plane measurement geometry, with a cone 20 mm in diameter, an angle of 1 degree and an air gap of 52 microns. The measurement temperature is fixed at 25° C. +/−0.2° C. using a thermostatically-controlled bath but can be adjusted if necessary.
Two complementary types of tests are carried out, on the one hand measurements in static mode and on the other hand measurements in dynamic mode (oscillatory rheology); both are briefly described hereafter. […]
For the dynamic measurements, a shear strain (γ0) […] of sinusoidal type, of known amplitude and frequency is applied to the sample. The resultant sinusoidal shear stress is measured (amplitude τ0). […] In this case, the sine curves recorded for the shear strain and the shear stress having a phase angle difference δ. The values of τ0, γ0 and δ make it possible to access the viscoelastic parameters:
The storage modulus (also called elastic modulus) is a measurement of the elastic energy stored (or restored) per unit volume, whilst the loss modulus is a measurement of the energy dissipated per unit volume. These moduli must be calculated in the linear viscoelastic region (i.e. experimental conditions for which these moduli are independent of the amplitude of the shear stress (strain)). These experimental conditions are in general determined by a so-called “stress sweep” experiment which consists of a measurement of the elastic modulus and the loss modulus as a function of the amplitude of the deformation imposed (for a given frequency, typically 1Hz). In general, in the case of small deformations, G′ and G″ vary very little with the deformation. Then, on passing the yield point, a strong reduction in G′ and a maximum of G″ is observed. This transition delimits the linear viscoelasticity region. When the linear viscoelasticity region is known, other tests can be carried out such as “frequency sweep” measurements consisting of measuring the dependence of G′ and G″ as a function of shear frequency at a fixed deformation amplitude, comprised in the linear viscoelasticity region.
The critical deformation is the deformation from which the elastic modulus dependent on the deformation applied at a constant frequency. For higher deformations, the material looses its viscoelastic properties and tends to become more viscous than elastic. […]

| Structure (SMILES) | Dynamic release after 44 h ([1]; 75 mM starting concentration) [%] | Dynamic release after 44 h ([1]; 226 mM starting concentration) [%] | Ki [2] [nM] | Critical deformation rheology ([3]; 75 mM) | Storage modulus rheology ([3]; 75 mM) | Critical deformation rheology ([3]; 226 mM) | Storage modulus rheology ([3]; 226 mM) |
| --- | --- | --- | --- | --- | --- | --- | --- |
| CC(C)[C@@H]1NC(=O)[C@H](CCCCN)NC(=O)[C@@H](Cc2c[nH]cn2)NC(=O)[C@H](Cc2ccc(O)cc2)NC(=O)[C@@H](NC(=O)[C@H](N)Cc2ccc3ccccc3c2)CSSC[C@@H](C(=O)N[C@H](C(N)=O)C(C)O)NC1=O (stereo partly drawn) [Example 3, H-D-2-Nal^1-cyclo(Cys^2-Tyr^3-D-His^4-Lys^5-Val^6-Cys^7)-Thr^8-NH2.2 CH3COOH] (H-[d2Nal]CY[dH]KVC[Thr(3ξ)]-NH2; disulfide 2-7) | 100 | 93 | ≤ 5000 | Viscosity | Viscosity | 360 Pa | 150,000 Pa |
| CC(C)[C@@H]1NC(=O)[C@H](CCCCN)NC(=O)[C@@H](C)NC(=O)[C@H](Cc2ccc(O)cc2)NC(=O)[C@@H](NC(=O)[C@H](N)Cc2ccc3ccccc3c2)CSSC[C@@H](C(=O)N[C@H](C(N)=O)C(C)O)NC1=O (stereo partly drawn) [Example 4, H-D-2-Nal^1-cyclo(Cys^2Tyr^3-D-Ala^4-Lys^5-Val^6Cys^7)-Thr^8-NH2.2 CH3COOH] (H-[d2Nal]CY[dA]KVC[Thr(3ξ)]-NH2; disulfide 2-7) | 94 | 75 |  | 800 Pa | 184,000 Pa | 18,600 Pa | >2,700,000 Pa |
| CC(C)[C@@H]1NC(=O)[C@H](CCCCN)NC(=O)[C@@H](Cc2cccc3ccccc23)NC(=O)[C@H](Cc2ccc(O)cc2)NC(=O)[C@@H](NC(=O)[C@H](N)Cc2ccc3ccccc3c2)CSSC[C@@H](C(=O)N[C@H](C(N)=O)C(C)O)NC1=O (stereo partly drawn) [Example 6, H-D-2-Nal^1-cyclo(Cys^2Tyr^3-13-(1-naphthyl)-D-Ala^4-Lys^5-Val^6-Cys^7)-Thr^8-NH2.2 CH3COOH] | 37 | 17 | ≤ 100 | 5000 Pa | 643,500 Pa | 8500 Pa | >2,700,000 Pa |
